tested on: UWB1 cells; test: cells; details: read-out: IC50 (μM) UWB1 cells

`COC(=O)C[C@H]1[C@]2(C)C3=C(C)[C@@H](c4ccc(O[Si](C)(C)C(C)(C)C)cc4)C[C@H]3O[C@@H]2[C@@H]2OC(=O)[C@]3(C)C=CC(=O)[C@@]1(C)[C@@H]23` (stereo in doubt) [S-120] and `COC(=O)C[C@H]1[C@]2(C)C3=C(C)[C@H](c4cccc(O[Si](C)(C)C(C)(C)C)c4)C[C@H]3O[C@@H]2[C@@H]2OC(=O)[C@]3(C)C=CC(=O)[C@@]1(C)[C@@H]23` [S-112] are within 1.5-fold of each other in IC50: 0.165 µM for the first, 0.219 µM for the second.

Going from `C=C1[C@H](O[Si](C)(C)C)[C@H](O[Si](C)(C)C)[C@@H]2[C@](C)(C(=O)C=C[C@@]2(C)C(=O)OC)[C@H]1CC(=O)OC` [S-16-a] to `C=C1[C@H](O[C@H]2C[C@@H](c3ccoc3)C(C)=C2I)[C@@H]2OC(=O)[C@]3(C)C=CC(=O)[C@@](C)([C@@H]23)[C@H]1CC(=O)OC` [S-27], the IC50 falls from greater than 10 µM to 0.415 µM. The second is the more potent here.

Going from `CC[Si](CC)(CC)O[C@H]1C(=O)[C@H](CC(=O)OC)[C@@]2(C)C=CC(=O)[C@@]3(C)C(=O)O[C@@H]1[C@@H]32` [S-38] to `COC(=O)C[C@H]1[C@@H]2CC3=C(C)CC[C@@H]3O[C@@H]2[C@@H]2OC(=O)[C@]3(C)C=CC(=O)[C@@]1(C)[C@@H]23` [S-98], the IC50 falls from greater than 10 µM to 0.83 µM. The second is the more potent here.

`COC(=O)C[C@H]1[C@@H]2CC3=C(C)[C@H](c4cccc(O[Si](C)(C)C(C)(C)C)c4)C[C@@H]3O[C@@H]2[C@@H]2OC(=O)[C@]3(C)C=CC(=O)[C@@]1(C)[C@@H]23` [S-113] and `COC(=O)C[C@H]1[C@@H]2CC3=C(C)[C@@H](c4cccc(O[Si](C)(C)C(C)(C)C)c4)C[C@H]3O[C@@H]2[C@@H]2OC(=O)[C@]3(C)C=CC(=O)[C@@]1(C)[C@@H]23` [S-115] are within 1.5-fold of each other in IC50: 0.216 µM for the first, 0.196 µM for the second.

First: COC(=O)C[C@H]1[C@]2(C)C3=C(C)[C@@H](c4cccc(O[Si](C)(C)C(C)(C)C)c4)C[C@H]3O[C@@H]2[C@@H]2OC(=O)[C@]3(C)C=CC(=O)[C@@]1(C)[C@@H]23 [S-114]
Second: COC(=O)C[C@H]1[C@@H]2CC3=C(C)[C@@H](c4cccc(O[Si](C)(C)C(C)(C)C)c4)C[C@@H]3O[C@@H]2[C@@H]2OC(=O)[C@]3(C)C=CC(=O)[C@@]1(C)[C@@H]23 [S-116]
The IC50 of the first is 1.6-fold higher: 0.242 µM for the first, 0.15 µM for the second.

same assay, conditions: read-out: IC50 (μM) UWB1 cells, UWB1 cell viability

`C=C1[C@H](O)[C@H](O)[C@@H]2[C@](C)(C(=O)C=C[C@@]2(C)C(=O)OC)[C@H]1CC(=O)OC` [S-16-b] and `C=C1[C@H](O)[C@@H]2OC(=O)[C@]3(C)C=CC(=O)[C@@](C)([C@@H]23)[C@H]1CC(=O)OC` [S-16] cannot be ordered by IC50: greater than 10 µM for the first, greater than 10 µM for the second.

`C=C1[C@H](O[C@H]2C=C(C)[C@H](c3ccoc3)C2)[C@@H]2OC(=O)[C@]3(C)C=CC(=O)[C@@](C)([C@@H]23)[C@H]1CC(=O)OC` [S-26-1] and `C=C1[C@H](O[C@H]2C=C(C)[C@H](c3ccoc3)C2)[C@@H]2OC(=O)[C@]3(C)C=CC(=O)[C@@](C)([C@@H]23)[C@H]1CC(=O)OC` [S-54] are the same in IC50: 0.265 µM for the first, 0.265 µM for the second.

First: COC(=O)C[C@H]1[C@]2(C)C3=C(C)[C@H](c4ccoc4Br)C[C@H]3O[C@@H]2[C@@H]2OC(=O)[C@]3(C)C=CC(=O)[C@@]1(C)[C@@H]23 [S-41]
Second: COC(=O)C[C@H]1[C@]2(C)C3=C(C)[C@H](c4ccoc4-c4ccoc4)C[C@H]3O[C@@H]2[C@@H]2OC(=O)[C@]3(C)C=CC(=O)[C@@]1(C)[C@@H]23 [S-47]
The IC50 of the first is 1.6-fold higher: 0.465 µM for the first, 0.296 µM for the second. The second is the more potent here.

`COC(=O)C[C@H]1[C@]2(C)C3=C(C)[C@H](c4ccoc4-c4cccc5c4ccn5C)C[C@H]3O[C@@H]2[C@@H]2OC(=O)[C@]3(C)C=CC(=O)[C@@]1(C)[C@@H]23` [S-42] and `COC(=O)C[C@H]1[C@]2(C)C3=C(C)[C@H](c4ccoc4-c4ccc(OC)cc4C)C[C@H]3O[C@@H]2[C@@H]2OC(=O)[C@]3(C)C=CC(=O)[C@@]1(C)[C@@H]23` [S-48] are within 1.5-fold of each other in IC50: 0.144 µM for the first, 0.212 µM for the second.

`COC(=O)C[C@H]1[C@]2(C)C3=C(C)[C@H](c4ccoc4-c4ccc(OC)nc4)C[C@H]3O[C@@H]2[C@@H]2OC(=O)[C@]3(C)C=CC(=O)[C@@]1(C)[C@@H]23` [S-43] and `COC(=O)C[C@H]1[C@]2(C)C3=C(C)[C@H](c4ccoc4-c4ccc(C(=O)OC)cc4)C[C@H]3O[C@@H]2[C@@H]2OC(=O)[C@]3(C)C=CC(=O)[C@@]1(C)[C@@H]23` [S-59] are within 1.5-fold of each other in IC50: 0.208 µM for the first, 0.203 µM for the second.

First: COC(=O)C[C@H]1[C@]2(C)C3=C(C)[C@H](c4ccoc4-c4ccc5c(c4)OCO5)C[C@H]3O[C@@H]2[C@@H]2OC(=O)[C@]3(C)C=CC(=O)[C@@]1(C)[C@@H]23 [S-44]
Second: COC(=O)C[C@H]1[C@]2(C)C3=C(C)[C@H](c4ccoc4-c4ccc(C=O)cc4)C[C@H]3O[C@@H]2[C@@H]2OC(=O)[C@]3(C)C=CC(=O)[C@@]1(C)[C@@H]23 [S-45]
The IC50 of the first is 1.5-fold higher: 0.383 µM for the first, 0.251 µM for the second.

Going from `COC(=O)C[C@H]1[C@]2(C)C3=C(C)[C@H](c4ccoc4-c4ccc([N+](=O)[O-])cc4)C[C@H]3O[C@@H]2[C@@H]2OC(=O)[C@]3(C)C=CC(=O)[C@@]1(C)[C@@H]23` [S-49] to `COC(=O)C[C@H]1[C@]2(C)C3=C(C)[C@H](c4ccoc4-c4ccc(C(=O)O)cc4)C[C@H]3O[C@@H]2[C@@H]2OC(=O)[C@]3(C)C=CC(=O)[C@@]1(C)[C@@H]23` [S-58], the IC50 rises from 0.194 µM to 1.79 µM (9.2-fold).

Compared with `COC(=O)C[C@H]1[C@]2(C)C3=C(C)[C@H](C4=CC(=O)OC4OC(C)=O)C[C@H]3O[C@@H]2[C@@H]2OC(=O)[C@]3(C)C=CC(=O)[C@@]1(C)[C@@H]23` (stereo partly shown) [S-50], `COC(=O)C[C@H]1[C@]2(C)C3=C(C)[C@H](c4ccc(OC)cc4)C[C@H]3O[C@@H]2[C@@H]2OC(=O)[C@]3(C)C=CC(=O)[C@@]1(C)[C@@H]23` [S-107] is 3.9-fold lower in IC50: 1.04 µM for the first, 0.27 µM for the second. The second is the more potent here.

`COC(=O)C[C@H]1[C@]2(C)C3=C(C)[C@H](c4ccoc4-c4ccc(C(=O)NC(C)(C)C)cc4)C[C@H]3O[C@@H]2[C@@H]2OC(=O)[C@]3(C)C=CC(=O)[C@@]1(C)[C@@H]23` [S-52] and `CCC(C)NC(=O)c1ccc(-c2occc2[C@@H]2C[C@H]3O[C@@H]4[C@@H]5OC(=O)[C@]6(C)C=CC(=O)[C@](C)([C@@H](CC(=O)OC)[C@]4(C)C3=C2C)[C@@H]56)cc1` (stereo partly shown) [S-53] are within 1.5-fold of each other in IC50: 0.199 µM for the first, 0.17 µM for the second.

`COC(=O)C[C@H]1[C@]2(C)C3=C(C)[C@H](c4ccoc4)C[C@H]3O[C@@H]2[C@@H]2OC(=O)[C@]3(C)C=C[C@@H](O)[C@@]1(C)[C@@H]23` [S-55] and `COC(=O)C[C@H]1[C@]2(C)C3=C(C)[C@H](c4ccoc4)C[C@H]3O[C@@H]2[C@@H]2OC(=O)[C@]3(C)CCC(=O)[C@@]1(C)[C@@H]23` [S-60, 2,3-dihydronimbolide] cannot be ordered by IC50: greater than 10 µM for the first, greater than 10 µM for the second.

`COC(=O)C[C@H]1[C@]2(C)C3=C(C)[C@H](c4ccoc4-c4ccccc4OC)C[C@H]3O[C@@H]2[C@H](O)[C@H]2C(C)=CCC(=O)[C@]12C` [S-56] and `COC(=O)C[C@H]1[C@]2(C)C3=C(C)[C@H](c4ccoc4)C[C@H]3O[C@@H]2[C@H](O)[C@H]2C(C)=CCC(=O)[C@]12C` [S-61, 6-deacetylnimbinene] cannot be ordered by IC50: greater than 10 µM for the first, greater than 10 µM for the second.

`COC(=O)C[C@H]1[C@@H]2CC3=C(C)[C@H](c4ccoc4)C[C@@H]3O[C@@H]2[C@@H]2OC(=O)[C@]3(C)C=CC(=O)[C@@]1(C)[C@@H]23` [S-57] and `COC(=O)C[C@H]1[C@@H]2CC3=C(C)[C@@H](c4ccoc4)C[C@@H]3O[C@@H]2[C@@H]2OC(=O)[C@]3(C)C=CC(=O)[C@@]1(C)[C@@H]23` [S-99] are within 1.5-fold of each other in IC50: 0.591 µM for the first, 0.88 µM for the second.

`COC(=O)C[C@H]1[C@]2(C)C3=C(C)[C@H](c4ccoc4)C[C@H]3O[C@@H]2[C@H](OC(C)=O)[C@H]2C(C)=CCC(=O)[C@]12C` [S-62, nimbinene] and `COC(=O)C[C@H]1[C@]2(C)C3=C(C)[C@H](c4ccoc4)C[C@H]3O[C@@H]2[C@H](OC(C)=O)[C@@H]2[C@]1(C)C(=O)C=C[C@@]2(C)C(=O)OC` [S-64, nimbin] cannot be ordered by IC50: greater than 10 µM for the first, greater than 10 µM for the second.

Compared with `COC(=O)C[C@H]1[C@]2(C)C3=C(C)[C@H](c4ccoc4)C[C@H]3O[C@@H]2[C@H](O)[C@@H]2[C@]1(C)C(=O)C=C[C@@]2(C)C(=O)OC` [S-63, 6-deacetylnimbin], `COC(=O)C[C@H]1[C@]2(C)C3=C(C)[C@H](c4ccccc4)C[C@H]3O[C@@H]2[C@@H]2OC(=O)[C@]3(C)C=CC(=O)[C@@]1(C)[C@@H]23` [S-101] is lower in IC50: greater than 10 µM for the first, 0.3 µM for the second. The second is the more potent here.

First: COC(=O)C[C@@H]1[C@@]2(C)C(=O)C=C[C@@]3(C)C(=O)O[C@@H]([C@H]4O[C@H]5CC(c6ccoc6)=C(C)[C@]56C[C@@]416)[C@H]23 [S-65]
Second: COC(=O)C[C@H]1[C@]2(C)C3=C(C)CC[C@H]3O[C@@H]2[C@@H]2OC(=O)[C@]3(C)C=CC(=O)[C@@]1(C)[C@@H]23 [S-97]
The IC50 of the first is higher: greater than 10 µM for the first, 1.45 µM for the second.

`COC(=O)C[C@H]1[C@@H]2CC3=C(C)[C@H](c4ccccc4)C[C@@H]3O[C@@H]2[C@@H]2OC(=O)[C@]3(C)C=CC(=O)[C@@]1(C)[C@@H]23` [S-102] and `COC(=O)C[C@H]1[C@@H]2CC3=C(C)[C@@H](c4ccccc4)C[C@@H]3O[C@@H]2[C@@H]2OC(=O)[C@]3(C)C=CC(=O)[C@@]1(C)[C@@H]23` [S-103] are within 1.5-fold of each other in IC50: 0.17 µM for the first, 0.16 µM for the second.

`COC(=O)C[C@H]1[C@]2(C)C3=C(C)[C@H](C4CCCCC4)C[C@H]3O[C@@H]2[C@@H]2OC(=O)[C@]3(C)C=CC(=O)[C@@]1(C)[C@@H]23` [S-104] and `COC(=O)C[C@H]1[C@@H]2CC3=C(C)[C@H](C4CCCCC4)C[C@@H]3O[C@@H]2[C@@H]2OC(=O)[C@]3(C)C=CC(=O)[C@@]1(C)[C@@H]23` [S-105] are within 1.5-fold of each other in IC50: 0.21 µM for the first, 0.2 µM for the second.

`COC(=O)C[C@H]1[C@@H]2CC3=C(C)[C@@H](C4CCCCC4)C[C@@H]3O[C@@H]2[C@@H]2OC(=O)[C@]3(C)C=CC(=O)[C@@]1(C)[C@@H]23` [S-106] and `COC(=O)C[C@H]1[C@@H]2CC3=C(C)[C@H](c4ccc(OC)cc4)C[C@@H]3O[C@@H]2[C@@H]2OC(=O)[C@]3(C)C=CC(=O)[C@@]1(C)[C@@H]23` [S-108] are within 1.5-fold of each other in IC50: 0.16 µM for the first, 0.11 µM for the second.

`COC(=O)C[C@H]1[C@@H]2CC3=C(C)[C@@H](c4ccc(OC)cc4)C[C@@H]3O[C@@H]2[C@@H]2OC(=O)[C@]3(C)C=CC(=O)[C@@]1(C)[C@@H]23` [S-109] and `C#CCOC(=O)c1ccc(-c2occc2[C@@H]2C[C@H]3O[C@@H]4[C@@H]5OC(=O)[C@]6(C)C=CC(=O)[C@](C)([C@@H](CC(=O)OC)[C@]4(C)C3=C2C)[C@@H]56)cc1` [S-112a] are within 1.5-fold of each other in IC50: 0.17 µM for the first, 0.198 µM for the second.

With `C=C1[C@H](O[C@H]2CCC(C(C)C)=C2I)[C@@H]2OC(=O)[C@]3(C)C=CC(=O)[C@@](C)([C@@H]23)[C@H]1CC(=O)OC` [S-111] the IC50 was 0.255 µM.
